Test: Thermodynamic / phase stability of the crystal modification at 25° C.
Type: physicochemical
Procedure: This modification is therefore suitable in dispersions comprising micro-fine particles.
Advantageously, dispersions comprising this specific crystal modification are not subjected to phase transformations resulting in a crystal growth.
5 g of the compound obtained in Example A2 (modification (B)) and 5 g of the compound of formula (1) obtained in Example A1 are elutriated in 50 g N-methylpyrrolidone at 25° C.
The suspension is stirred for 3 days at 25° C.

Compound: CCN(CC)c1ccc(C(=O)c2ccccc2C(=O)N2CCN(C(=O)c3ccccc3C(=O)c3ccc(N(CC)CC)cc3O)CC2)c(O)c1 [crystal modification (C)]
- thermodynamic stability of the crystal modification: thermodynamically stable

Source: patent publication US8557820B2, “Crystal modifications of transmission dyes” (BASF SE, priority 2007, dated 2013)
